Experimental data as given in ChEMBL document CHEMBL1201862, “PubChem BioAssay data set” (2004).
Activity calls are given as the source filed them.

Tests used:
[1] = HIV-1 Vif–A3G interaction blockers – biochemical, TR-FRET, GST-Vif 1-94, biotin-A3G peptide, dose response retest, primary screen (AID 1117319); format: functional;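 note: TR-FRET signal of purified GST-Vif binding a biotinylated A3G peptide; inhibitors lower the FRET signal by blocking Vif and A3G binding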
[2] = biological target: Induced myeloid leukemia cell differentiation protein Mcl-1 (Homo sapiens, UniProt Q07820); format: functional
[3] = biological target: Eukaryotic translation initiation factor 4E (Mus musculus, UniProt P63073); assay: blockers of eIF4G binding by eIF4E – biochemical, TR-FRET, dose response (AID 855); format: functional;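 note: potency for disrupting eIF4E binding to eIF4GI seen as loss of FRET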
[4] = biological target: T1, Carboxy-terminal domain RNA polymerase II polypeptide A small phosphatase 1 (Homo sapiens, UniProt Q9GZU7); assay: CTDSP1 inhibitors, concentration-response, biochemical, absorbance readout, ultra-high-throughput screen actives (AID 540297); format: functional
T1 sequence (Q9GZU7 whole entry): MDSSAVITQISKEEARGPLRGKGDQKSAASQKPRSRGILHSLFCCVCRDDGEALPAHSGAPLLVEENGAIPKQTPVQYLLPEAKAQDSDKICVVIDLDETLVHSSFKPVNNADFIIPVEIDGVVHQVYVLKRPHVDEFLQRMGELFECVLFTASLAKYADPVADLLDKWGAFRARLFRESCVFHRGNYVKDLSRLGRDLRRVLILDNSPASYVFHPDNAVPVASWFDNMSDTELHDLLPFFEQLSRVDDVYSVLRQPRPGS

[5] = biological target: T2, Caspase-6 (Homo sapiens, UniProt P55212); assay: inhibition of CASP6 peptide cleavage – biochemical, VEID-R110 fluorescence, cherry-pick, dose response (AID 720632)
T2 sequence (P55212 whole entry): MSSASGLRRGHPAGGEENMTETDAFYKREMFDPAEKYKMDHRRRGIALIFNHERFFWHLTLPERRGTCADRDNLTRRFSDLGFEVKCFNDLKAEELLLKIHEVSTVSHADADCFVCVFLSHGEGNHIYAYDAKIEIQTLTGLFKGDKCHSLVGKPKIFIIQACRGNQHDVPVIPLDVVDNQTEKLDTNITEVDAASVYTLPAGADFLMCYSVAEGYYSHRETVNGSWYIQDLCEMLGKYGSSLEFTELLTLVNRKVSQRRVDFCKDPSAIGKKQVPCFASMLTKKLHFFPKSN

[6] = biological target: Peroxisome proliferator-activated receptor gamma/Nuclear receptor coactivator 1 (Homo sapiens, UniProt P37231); assay: (§1) TR-FRET dose response biochemical High Throughput Screening assay for agonists of the steroid receptor coactivator 1 (SRC-1) recruitment by the peroxisome proliferator-activated receptor gamma (PPAR gamma): non-selective agonists. [Related pubchem assays (depositor defined):AID1300, AID1808, AID504735, AID631]; format: protein assay
[7] = biological target: Peroxisome proliferator-activated receptor gamma/Nuclear receptor coactivator 3 (Homo sapiens, UniProt P37231); assay: as §1, with “3 (SRC-3)” for “1 (SRC-1)”, “assays: 1301 (Confirmation screen.), 1048 (Primary screen.)]” for “assays (depositor defined):AID1300, AID1808, AID504735, AID631]”; format: functional
[8] = biological target: Peroxisome proliferator-activated receptor gamma/Nuclear receptor coactivator 2 (Homo sapiens, UniProt P37231); assay: TR-FRET dose response biochemical High Throughput Screening assay for agonists of the steroid receptor coactivator 2 (SRC-2) recruitment by the peroxisome proliferator-activated receptor gamma (PPAR gamma): non-selective agonists. [Related pubchem assays: 1297, 1032 ]; format: functional
[9] = biological target: T3, Protein skinhead-1 (Caenorhabditis elegans, UniProt P34707); format: functional
T3 sequence (P34707 whole entry): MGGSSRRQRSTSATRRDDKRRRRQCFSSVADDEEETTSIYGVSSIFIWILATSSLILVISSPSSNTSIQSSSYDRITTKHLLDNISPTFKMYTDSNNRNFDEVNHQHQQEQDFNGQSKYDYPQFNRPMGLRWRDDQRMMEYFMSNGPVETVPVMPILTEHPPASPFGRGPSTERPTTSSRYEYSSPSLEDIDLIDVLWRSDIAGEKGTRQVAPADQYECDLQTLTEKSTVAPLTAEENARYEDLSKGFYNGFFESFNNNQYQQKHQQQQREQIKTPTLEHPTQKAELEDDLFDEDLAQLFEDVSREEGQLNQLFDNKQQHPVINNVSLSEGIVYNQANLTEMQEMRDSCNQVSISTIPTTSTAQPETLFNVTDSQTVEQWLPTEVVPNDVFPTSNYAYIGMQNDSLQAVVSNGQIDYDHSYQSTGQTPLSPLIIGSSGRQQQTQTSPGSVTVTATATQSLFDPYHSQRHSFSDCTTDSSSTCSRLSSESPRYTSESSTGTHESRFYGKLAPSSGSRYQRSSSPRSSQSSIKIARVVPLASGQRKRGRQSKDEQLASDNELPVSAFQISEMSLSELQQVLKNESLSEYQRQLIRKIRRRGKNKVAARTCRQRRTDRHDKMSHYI

[10] = biological target: Major prion protein (Homo sapiens, UniProt P04156); format: functional, cell-based
[11] = cells
[12] = biological target: T4, 1-phosphatidylinositol 4,5-bisphosphate phosphodiesterase gamma-1 (Homo sapiens, UniProt P19174); assay: Counterscreen for inhibitors of phospholipase C isozymes (PLC-B3): Fluorescence-based biochemical high throughput dose response assay to identify inhibitors of phospholipase C isozymes (PLC-gamma1).
T4 sequence (P19174 whole entry): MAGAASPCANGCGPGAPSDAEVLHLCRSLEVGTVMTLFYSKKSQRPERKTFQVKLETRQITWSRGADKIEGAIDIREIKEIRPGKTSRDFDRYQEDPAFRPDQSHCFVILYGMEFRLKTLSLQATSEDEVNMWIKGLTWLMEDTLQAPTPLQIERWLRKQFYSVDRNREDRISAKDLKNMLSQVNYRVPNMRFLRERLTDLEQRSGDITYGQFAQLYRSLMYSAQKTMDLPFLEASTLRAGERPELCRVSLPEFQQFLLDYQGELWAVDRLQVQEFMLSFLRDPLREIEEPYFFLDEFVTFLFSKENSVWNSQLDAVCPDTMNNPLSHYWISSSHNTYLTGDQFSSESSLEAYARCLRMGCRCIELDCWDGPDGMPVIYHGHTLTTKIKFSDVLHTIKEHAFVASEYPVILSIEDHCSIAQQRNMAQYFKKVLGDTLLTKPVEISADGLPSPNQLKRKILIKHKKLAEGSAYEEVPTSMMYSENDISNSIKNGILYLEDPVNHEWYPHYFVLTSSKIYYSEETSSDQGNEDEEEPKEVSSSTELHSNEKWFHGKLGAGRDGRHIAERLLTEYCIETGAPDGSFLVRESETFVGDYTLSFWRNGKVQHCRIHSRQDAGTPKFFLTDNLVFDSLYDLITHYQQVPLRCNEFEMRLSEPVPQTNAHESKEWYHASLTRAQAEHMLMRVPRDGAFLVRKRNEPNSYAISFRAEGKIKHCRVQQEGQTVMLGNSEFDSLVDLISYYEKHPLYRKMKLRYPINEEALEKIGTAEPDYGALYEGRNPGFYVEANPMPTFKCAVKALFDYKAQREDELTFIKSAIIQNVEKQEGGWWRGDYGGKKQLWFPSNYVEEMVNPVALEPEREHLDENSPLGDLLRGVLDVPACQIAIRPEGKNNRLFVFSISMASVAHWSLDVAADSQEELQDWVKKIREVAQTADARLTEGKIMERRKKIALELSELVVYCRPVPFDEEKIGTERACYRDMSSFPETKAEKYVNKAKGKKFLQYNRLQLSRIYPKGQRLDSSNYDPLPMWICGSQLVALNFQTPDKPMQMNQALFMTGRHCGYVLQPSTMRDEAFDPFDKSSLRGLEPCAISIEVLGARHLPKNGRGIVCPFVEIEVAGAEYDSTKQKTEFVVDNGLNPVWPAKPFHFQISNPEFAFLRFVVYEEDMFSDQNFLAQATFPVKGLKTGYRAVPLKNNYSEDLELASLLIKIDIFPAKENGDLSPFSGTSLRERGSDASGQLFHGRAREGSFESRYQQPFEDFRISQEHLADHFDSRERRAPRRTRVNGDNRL

[13] = biological target: T5, 1-phosphatidylinositol 4,5-bisphosphate phosphodiesterase beta-3 (Homo sapiens, UniProt Q01970); assay: Fluorescence-based biochemical high throughput dose response assay to identify inhibitors of phospholipase C isozymes (PLC-B3).
T5 sequence (Q01970 whole entry): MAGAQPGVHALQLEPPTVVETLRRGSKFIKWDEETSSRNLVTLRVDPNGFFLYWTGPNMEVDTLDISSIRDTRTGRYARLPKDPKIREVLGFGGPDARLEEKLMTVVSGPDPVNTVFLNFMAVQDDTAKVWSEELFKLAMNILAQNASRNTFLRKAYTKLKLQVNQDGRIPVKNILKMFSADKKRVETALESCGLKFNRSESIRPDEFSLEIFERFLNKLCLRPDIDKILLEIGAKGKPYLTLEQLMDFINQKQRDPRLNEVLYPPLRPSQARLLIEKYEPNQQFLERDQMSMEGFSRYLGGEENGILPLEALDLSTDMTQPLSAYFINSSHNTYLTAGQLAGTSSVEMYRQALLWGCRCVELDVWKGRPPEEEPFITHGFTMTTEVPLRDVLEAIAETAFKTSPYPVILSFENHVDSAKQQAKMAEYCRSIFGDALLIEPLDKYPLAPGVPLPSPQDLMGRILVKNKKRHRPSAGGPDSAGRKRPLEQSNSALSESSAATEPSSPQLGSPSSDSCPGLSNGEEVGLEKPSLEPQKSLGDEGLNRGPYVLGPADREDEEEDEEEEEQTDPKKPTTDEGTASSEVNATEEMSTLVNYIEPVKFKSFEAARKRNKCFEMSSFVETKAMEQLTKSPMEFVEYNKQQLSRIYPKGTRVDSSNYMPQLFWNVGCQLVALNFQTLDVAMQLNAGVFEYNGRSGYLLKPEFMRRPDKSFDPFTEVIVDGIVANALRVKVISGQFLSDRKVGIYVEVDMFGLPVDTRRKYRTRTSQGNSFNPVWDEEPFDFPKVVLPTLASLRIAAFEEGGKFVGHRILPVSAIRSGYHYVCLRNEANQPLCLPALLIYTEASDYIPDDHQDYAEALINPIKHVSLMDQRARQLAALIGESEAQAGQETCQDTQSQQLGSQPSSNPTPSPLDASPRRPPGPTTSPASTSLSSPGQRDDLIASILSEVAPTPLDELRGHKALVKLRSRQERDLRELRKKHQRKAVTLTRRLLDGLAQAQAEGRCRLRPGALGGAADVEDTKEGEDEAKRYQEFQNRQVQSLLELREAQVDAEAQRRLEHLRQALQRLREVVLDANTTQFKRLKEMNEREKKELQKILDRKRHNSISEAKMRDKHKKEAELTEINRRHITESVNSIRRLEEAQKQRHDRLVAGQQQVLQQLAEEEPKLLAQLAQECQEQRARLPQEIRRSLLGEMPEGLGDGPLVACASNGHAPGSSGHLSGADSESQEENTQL

[14] = biological target: DNA dC->dU-editing enzyme APOBEC-3A (Homo sapiens, UniProt P31941); assay: Dose Response confirmation of small molecule APOBEC3A DNA Deaminase Inhibitors via a fluorescence-based single-stranded DNA deaminase assay. [Related pubchem assays (depositor defined):AID493011, AID493024]; format: functional
[15] = biological target: DNA dC->dU-editing enzyme APOBEC-3G (Homo sapiens, UniProt Q9HC16); format: functional;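 note: Dose-response counterscreen measuring inhibition of APOBEC3G DNA deaminase activity, run while confirming APOBEC3A inhibitors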
[16] = system: Streptococcus sp. 'group A'; assay: Streptococcus pyogenes SK(-)GAS viability under kanamycin – luminescence, BacTiterGlo, confirmation, counter-screen for streptokinase expression inhibitor project, dose response (AID 1900); format: functional, organism-based
[17] = biological target: T6, Streptokinase A (Streptococcus pyogenes serotype M1, UniProt P10520); assay: viability-normalized secreted streptokinase activity reduction – plasminogen activation absorbance, OD405, dose response (AID 1914); format: functional, Streptococcus pyogenes M1 GAS;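 note: secreted streptokinase activity via plasminogen activation per viability signal from cell pellet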
T6 sequence (P10520 whole entry): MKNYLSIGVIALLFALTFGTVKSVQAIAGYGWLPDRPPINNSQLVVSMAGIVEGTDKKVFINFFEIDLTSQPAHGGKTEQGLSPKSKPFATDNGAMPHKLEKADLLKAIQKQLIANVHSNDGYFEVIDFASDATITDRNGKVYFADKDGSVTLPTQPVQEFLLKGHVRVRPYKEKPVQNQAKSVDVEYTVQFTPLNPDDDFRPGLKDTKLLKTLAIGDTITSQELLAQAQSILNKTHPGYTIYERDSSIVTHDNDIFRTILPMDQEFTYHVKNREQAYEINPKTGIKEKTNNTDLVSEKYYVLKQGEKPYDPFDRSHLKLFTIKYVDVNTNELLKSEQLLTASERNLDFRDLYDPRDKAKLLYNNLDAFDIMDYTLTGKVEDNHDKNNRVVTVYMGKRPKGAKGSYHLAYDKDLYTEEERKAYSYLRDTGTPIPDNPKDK

[18] = system: Streptococcus; assay: GAS UMAA2166 growth inhibition – luminescence, BacTiterGlo, counter-screen for streptokinase expression inhibitor project, dose response (AID 1915); format: functional, organism-based;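 note: potency for reduction of bacterial viability or growth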

## CCOC(=O)C1CCN(S(=O)(=O)c2cccc(-c3cn4cccc(C)c4n3)c2)CC1
[1]
  IC50: > 100 µM (active)

## O=C(CSc1ccsc1[N+](=O)[O-])Nc1cc(F)ccc1F
[2]
  IC50: 6.52 µM (not active)
[3]
  IC50: 28.4 µM (active)
[4]
  IC50: 2.76 µM (active)
[5]
  AC50: 5.74 µM (active)

## Cc1cc2cc(CNC(=O)c3ccc(S(=O)(=O)N4CCCC4)cc3)ccc2n1C
[6]
  EC50: 3.68 µM (active)
[7]
  EC50: 8.02 µM (active)
[8]
  EC50: 3.91 µM (active)
[9]
  IC50: > 100 µM (inactive)
[10]
  IC50: 21.5 µM (inactive)
[11]
  IC50: > 138 µM (inactive)

## CC(=O)c1ccc(Nc2nc(=O)c3cccnc3s2)cc1
[1]
  IC50: > 100 µM (active)

## COc1ccccc1N1CCN(C(=O)c2cc(-c3cccs3)on2)CC1
[1]
  IC50: > 100 µM (active)

## CCOc1cccc(C(=O)Nc2ccc(NC(=O)c3ccccc3)c(C)c2)c1
[12]
  IC50: > 122 µM (inactive)
[13]
  IC50: > 122 µM (inactive)

## CC1(CC(=O)N/N=C/c2cc([N+](=O)[O-])c(O)cc2O)OCCO1
[14]
  IC50: 19.3 µM (active)
[15]
  IC50: 41 µM (active)
[4]
  IC50: 4.41 µM (active)
[5]
  AC50: 23.7 µM (active)
[12]
  IC50: > 122 µM (inactive)
[13]
  IC50: > 122 µM (inactive)

## O=C(CC1S/C(=N\c2ccccc2)N(CCc2c[nH]c3ccccc23)C1=O)Nc1ccccc1F (stereo unspecified)
[16]
  EC50: 13.2 µM (active)
[17]
  EC50: 14 µM (inconclusive)
[18]
  EC50: 43.5 µM (active)
[12]
  IC50: > 122 µM (inactive)
[13]
  IC50: > 122 µM (inactive)
